Results on 1 molecule are retold here after patent publication US20230181553A1, “COMPOSITION FOR HAIR IMPROVEMENT” (Dr. Cherry Inc., priority 2020, published 2023).

In one experiment the test system is CD34. Briefly: Gene expression in rat skin tissue after subcutaneous administration (qPCR). It is filed as in vivo, Wistar Rat. The following applies: rat back skin, 2.5, 0.1 or 0.02 µg/portion, tissue after 8 weeks, relative to no PG administration. Here is the method:
(§1) Next, change in gene expression in a tissue was checked. As a subject, 12 weeks old Wistar Rat (male) was used. Regarding a 2.5 µg/portion administration group, three regions were set on the back from the head to the tail, and each of these regions was divided into two regions on both left and right sides of the spine to set six regions on the back in total. In such an administration group, PG was administered to two portions around the center of each of the six regions. Specifically, in the 2.5 µg/portion administration group (n = 3), 2.5 µg (20 µL) of PG was administered per portion. Besides, regarding a 0.1 µg/portion administration group and a 0.02 µg/portion administration group, two regions were set from the head to the tail, and each of these regions was divided into two regions on both left and right sides of the spine, and thus, four regions in total were set on the back. In such an administration group, PG was administered to two portions around the center of each of the four regions. Specifically, in the 0.1 µg/portion administration group (n = 3), 0.1 µg (20 µL) of PG was administered per portion, and in the 0.02 µg/portion administration group (n = 2), 0.02 µg (20 µL) of PG was administered per portion. It is noted that a distance between the two portions was 1 cm. After 8 weeks, a tissue was collected with a 3 mm punch after shaving a portion on the center of the injected portion.
(§2) The collected tissue piece was frozen with liquid nitrogen, and stored at -80° C. […] For gene expression analysis by quantitative PCR, design and synthesis of a gene specific primer and a probe were entrusted to Integrated DNA Technologies, Inc. (Skokie, IL, USA), and an expression level of a target gene was analyzed with Prime Time Gene Expression Master Mix reagent (Integrated DNA Technologies, Inc., Skokie, IL, USA) and a Rotor-Gene Q PCR device (QIAGEN GmbH, Hilden, Germany). […]
In general terms: Real-time PCR tracks product formation cycle by cycle.

Experiment [1] has as its system CD68. The description is as above. It is filed as in vivo, Wistar Rat. The following applies: rat back skin, 2.5, 0.1 or 0.02 µg/portion, tissue after 8 weeks, relative to no PG administration. As to the method: as §1, §2
Experiment [2] has as its system CD163. Described as above. In kind it is in vivo, Wistar Rat. To be noted: rat back skin, 2.5, 0.1 or 0.02 µg/portion, tissue after 8 weeks, relative to no PG administration. As to the method: as §1, §2
The test system of experiment [3] is CD68. Briefly: Gene expression in human scalp tissue after pioglitazone treatment (qPCR). It is filed as in vivo. The following applies: whole scalp three times once every two months, before vs 6 months after first treatment. Here is the method: (§3) A human subject was also checked. A suspension of pioglitazone was prepared in the same manner as in Example 2, and the whole amount of the suspension was applied to the head of a human subject. The PG treatment was performed on the whole scalp three times at a frequency of once every two months. A tissue around the test site was collected with a 3 mm punch before the treatment and 2 months after performing the treatment three times (6 months after the first treatment). The collected tissue was halved, and one half was fixed with 10% formalin, and stored under refrigeration. The other half was immersed in RNA Stabilization Solution (RNAlater, Thermo Fisher Scientific, Lithuania), and the resultant was frozen in liquid nitrogen, and stored at -80° C. Thereafter, the gene expression analysis was performed in the same manner as the rat gene expression analysis.
(§4) A difference (ΔCt), in an expression level of mRNA, between ribosomal protein lateral stalk subunit P0 (Rp1P0) of a housekeeping gene and the target gene (average of Ct obtained from the qPCR reaction of each gene performed three times) was calculated, and in addition, a difference (ΔΔCt) in ΔCt between samples of the subject to be analyzed obtained before and after the treatment and a control (two persons not treated) was calculated. […]

The test system of experiment [4] is CD163. The description is as above. To be noted: whole scalp three times once every two months, before vs 6 months after first treatment. It is filed as in vivo. Here is the method: as §3, §4

With `CCc1ccc(CCOc2ccc(CC3SC(=O)NC3=O)cc2)nc1` (centres unmarked) [pioglitazone], the “expression of CD34” value in the experiment on CD34 is listed as “found to increase”. The “expression of CD68” value in the experiment on CD68 [1] is on record as “found to simultaneously increase”; with CD68 [3], “found to increase”. Also, the “expression of CD163” value is recorded as “found to simultaneously increase” in the experiment on CD163 [2] and “found to increase” with CD163 [4].
